# Measurements published in patent US20110081362A1, “TREATMENT OF CANCER” (THE BRIGHAM AND WOMEN'S HOSPITAL, INC., priority 2008, published 2011).
# Where a SMILES comes first, the peptide text is derived from it. The star is where a group is joined. Cbz = O=C(OCc1ccccc1)*
# Assays:
# Type in all cases: cell-based, human
# [1] = tested on: DLD-1 Ras Mut cells vs DLD-1 Ras WT cells; test: Competition assay, GFP-labeled Ras Mut vs Ras WT cells, FACS; settings: for Viability/fitness of Ras Mut cells after transient treatment: DLD-1, 24 hours treatment, drug washed out, 3 additional days before FACS; for Fitness of Ras Mut cells relative to Ras WT cells (synthetic lethality with mutant Ras): DLD-1 isogenic pair, drug present for 4-5 days
# Procedure: E. Schematic of the competition assay used to validate shRNAs from the primary screen. Ras Mut cells expressing GFP and Ras WT cells were mixed and co-infected with the same retroviral shRNA. The Mut to WT cell ratio at the end of the experiment is measured by FACS. The percentage of Ras Mut cells in the mixture infected with a candidate RSL shRNA was normalized against that of a control shRNA targeting firefly luciferase (FF) within the same experiment to generate a normalized fitness score for the Ras Mut cells. Variations of this assay are also used to test the effect of siRNAs and chemical inhibitors.
# Next, a competition assay was devised to test the reproducibility of candidate RSL shRNAs from the primary screen (Torrance et al., 2001; Smogorzewska et al., 2007). Individual shRNAs were packaged into retroviruses and infected into a 50:50 mixture of GFP+ DLD-1 Ras Mut cells and GFP (colorless) DLD-1 Ras WT cells. The relative ratio of Ras Mut versus WT cells at ˜7 days post shRNA infection was analyzed by FACS and compared to that of a mixed population infected with a negative control shRNA targeting luciferase (FIG. 8E). […] To rule out cell-line specific effect of candidate RSL shRNAs, candidates were tested using the competition assay in a second isogenic pair of colorectal cancer cell lines: HCT116 KRAS WT/G13D and HCT116 KRAS WT/−, which were derived with a similar method as the DLD-1 isogenic pair (Shirasawa et al., 1993; Torrance et al., 2001).
# The competition assay used to test candidate genes from the screen was modified from a previous protocol (Torrance et al., 2001; Smogorzewska et al., 2007) and was carried out in 96-well plates in independent triplicates. For this assay, 1,000 each of GFP-labeled Ras Mut and unlabeled Ras WT cells were seeded in each well. For retroviral shRNA infection, cells were infected at an MOI of 1-5, selected for 3 days with puromycin and propagated for an additional 4-5 days before analyzed by FACS. An shRNA targeting firefly luciferase (shRNA-FF) was used as the negative control. For siRNA transfection, cells were transfected with siGenome siRNAs (Dharmacon) using Lipofectamine RNAiMAX (InVitrogen) and analyzed by FACS 5-6 days post transfection An siRNA targeting luciferase (Luc) was used as the negative control. […] Untreated wells were used as negative controls. To obtain normalized fitness of Ras Mut cells that can be compared across experiments, the percentage of Ras Mut cells in each sample was normalized to that in the control samples of that experiment.
# [2] = tested on: HCT116 Ras Mut cells vs HCT116 Ras WT cells; test: as above; settings: HCT116 isogenic pair; drug present for 4-5 days
# Procedure: Next, a competition assay was devised to test the reproducibility of candidate RSL shRNAs from the primary screen (Torrance et al., 2001; Smogorzewska et al., 2007). Individual shRNAs were packaged into retroviruses and infected into a 50:50 mixture of GFP+ DLD-1 Ras Mut cells and GFP (colorless) DLD-1 Ras WT cells. The relative ratio of Ras Mut versus WT cells at ˜7 days post shRNA infection was analyzed by FACS and compared to that of a mixed population infected with a negative control shRNA targeting luciferase (FIG. 8E). […] Without wishing to be bound by theory, a possible cause for the higher false positive rate in the primary screen might due to the fact that for the synthetic lethal analysis the difference between two microarray datasets is extracted and coupled with the fact that the secondary assay is much shorter than the original discovery assay. To rule out cell-line specific effect of candidate RSL shRNAs, candidates were tested using the competition assay in a second isogenic pair of colorectal cancer cell lines: HCT116 KRAS WT/G13D and HCT116 KRAS WT/−, which were derived with a similar method as the DLD-1 isogenic pair (Shirasawa et al., 1993; Torrance et al., 2001).
# The competition assay used to test candidate genes from the screen was modified from a previous protocol (Torrance et al., 2001; Smogorzewska et al., 2007) and was carried out in 96-well plates in independent triplicates. For this assay, 1,000 each of GFP-labeled Ras Mut and unlabeled Ras WT cells were seeded in each well. For retroviral shRNA infection, cells were infected at an MOI of 1-5, selected for 3 days with puromycin and propagated for an additional 4-5 days before analyzed by FACS. An shRNA targeting firefly luciferase (shRNA-FF) was used as the negative control. For siRNA transfection, cells were transfected with siGenome siRNAs (Dharmacon) using Lipofectamine RNAiMAX (InVitrogen) and analyzed by FACS 5-6 days post transfection An siRNA targeting luciferase (Luc) was used as the negative control. For drug treatment, cells were treated with drugs for 4-5 days prior to FACS analysis. Untreated wells were used as negative controls. To obtain normalized fitness of Ras Mut cells that can be compared across experiments, the percentage of Ras Mut cells in each sample was normalized to that in the control samples of that experiment.
# [3] = tested on: DLD-1 Ras Mut and Ras WT cells; test: Cell cycle and mitotic stage analysis (FACS, phospho-H3 Ser10, microscopy); settings: for G2/M arrest, Ras Mut vs Ras WT cells: synthetic lethal concentration of drug; for Prometaphase arrest of mitotic cells: DLD-1 Ras Mut vs Ras WT; for Completion of mitosis (mitotic exit) after nocodazole release: BI-2536 for 2 hours
# Procedure: (§1) For cell cycle analysis, cells were ethanol fixed and stained with PI and analyzed using a BD LSR II FACS analyzer (BD Bioscience). Data analysis was carried out with BD FACS Diva and FlowJo softwares. Cell cycle synchronization by double thymidine block was based on a previous protocol (Steegmaier et al., 2007). Briefly, cells were arrested with two rounds of 20-hour thymidine (2.5 mM) treatment approximately 12 hours apart and released into mitosis. […] For one-step arrest in G2/M or in prometaphase, cells were treated overnight with either RO-3306 (10 μM) or the Eg5 kinesin inhibitor monastrol (100 μM), respectively. For mitotic entry experiments, cells were synchronized in RO-3306 (10 uM) overnight prior to release. For mitotic release experiments, cells were released from overnight synchronization in RO-3306 (10 uM) into nocodazole ([…]) for 4 hours and mitotic cells were collected by mitotic shake-off. Cells were then release by washing out the nocodazole. For the analysis of lagging chromosomes and mitotic index by microscopy, cells seeded onto coverslips were arrested in mitosis with 100 μM monastrol for 16 hours. Cells were washed and released into fresh media and were fixed at ten minute intervals for two hours in PHEM buffer+2% formaldehyde+0.5% triton-X100. Cells were immunostained with DAPI to visualized DNA and antibodies to phospho-histone H3 Ser10 (pH3S10) and to α-tubulin to identify mitotic cells at different stages. Independent triplicates with >100 cells per replicate were analyzed. For measuring mitotic index by FACS, cells were trypsinized, fixed with ethanol and stained with PI and pH3S10 antibody.
# [4] = tested on: HCT116 Ras Mut and Ras WT cells
# Procedure: as §1, with “Cells were immunostained with DAPI to visualized DNA and antibodies to phospho-histone H3 Ser10 (pH3S10) and to α-tubulin to identify mitotic cells at different stages.” left out, “For measuring mitotic index by FACS, cells were trypsinized, fixed with ethanol and stained with PI and pH3S10 antibody.” left out
# [5] = tested on: DLD-1 PI3K Mut cells vs PI3K WT cells; test: Competition assay, PI3K Mut vs PI3K WT cells; settings: DLD-1 isogenic for the PI3K oncogene
# [6] = tested on: HCT116 PI3K Mut cells vs PI3K WT cells; test: Competition assay, PI3K Mut vs PI3K WT cells; settings: HCT116 isogenic for the PI3K oncogene
# DLD-1 Ras Mut cells = test: CellTiter GLO cell viability assay; settings: DLD-1 Ras Mut vs WT measured independently
# Procedure: The DLD-1 and HCT116 isogenic cells were kind gifts from Dr. Bert Vogelstein (Johns Hopkins University School of Medicine) and were maintained in McCoy's 5A media supplemented with 10% FBS and antibiotics. For proliferation assays, 10,000 cells were seeded in each well of a 24-well plate and cell number was measured using CellTiterGLO (Promega). For adherent colony assays, 1000 cells were seeded in each well of a 6-well plate and colonies were counted 10 days later by Coomassie staining. For anchorage independent colony assays, 1000 cells were seeded in each well of a 6-well plate in media containing 0.35% low-melting point agarose and colonies were counted 3 weeks later by crystal violet staining. The PCR primers used to amplify HH barcodes from genomic DNA samples are JH353F 5′-[…]-3′ and HHR2L 5′-[…]-3′. […] Paclitaxel, nocodazole, MG132 and monastrol were from Sigma-Aldrich. RO-3306 was from EMD Calbiochem. Bortezomib was from LC Laboratories. Rabbit antibody against phospho-PLK1 T210 was from Abcam. Rabbit phosphoH3-S10 antibody was from Covance. Mouse antibodies against PLK1, K-Ras and tubulin were from Santa Cruz Biotechnologies. Rabbit anti-COPS4 antibody was from Bethyl Laboratories.
SMILES,Viability/fitness of Ras Mut cells after transient treatment [1],Fitness of Ras Mut cells relative to Ras WT cells (synthetic lethality with mutant Ras) [1],Fitness of Ras Mut cells relative to Ras WT cells (synthetic lethality with mutant Ras) [2],"G2/M arrest, Ras Mut vs Ras WT cells ([3]; DLD-1)",Prometaphase arrest of mitotic cells [3],Cell cycle accumulation of Ras Mut cells by FACS [4],Fitness of PI3K Mut cells vs PI3K WT cells [5],Fitness of PI3K Mut cells vs PI3K WT cells [6],Concentration at which the synthetic lethal effect is strongest ([1]; DLD-1 cells),"G2/M accumulation, cell cycle distribution ([3]; DLD-1, 25 nM or 50 nM BI-2536 for one day)","Sub-G1 population (cell death) ([3]; DLD-1, prolonged treatment with BI-2536 (25 nM) for 2 days)",Completion of mitosis (mitotic exit) after nocodazole release ([3]; DLD-1 Ras Mut cells),Completion of mitosis (mitotic exit) after nocodazole release ([3]; DLD-1 Ras WT cells),"Mitotic entry after release from RO-3306 into nocodazole ([3]; DLD-1 Ras WT or Ras Mut, synthetic lethal concentration of BI-2536, 1 hour)",Toxicity by CellTiter GLO cell viability (DLD-1 Ras Mut cells)
CC(C)C[C@@H](C=O)NC(=O)[C@H](CC(C)C)NC(=O)[C@H](CC(C)C)NC(=O)OCc1ccccc1 [MG132] (Cbz-Leu-Leu-Leu-aldehyde),sufficient to selectively impair the viability of Ras Mut cells,selectively decreased the fitness of DLD-1 Ras Mut cells in a dose dependent fashion,selectively decrease the fitness of HCT116 Ras Mut cells,more sensitive,more profound prometaphase block of the Ras Mut cells,preferentially induce the accumulation of Ras Mut HCT116 cells,more resistant to these inhibitors relative to DLD-1 PI3K WT cells,very little difference,,,,,,,
CC(C)C[C@H](NC(=O)[C@H](Cc1ccccc1)NC(=O)c1cnccn1)B(O)O [bortezomib],sufficient to selectively impair the viability of Ras Mut cells,selectively decreased the fitness of DLD-1 Ras Mut cells in a dose dependent fashion,selectively decrease the fitness of HCT116 Ras Mut cells,more sensitive,more profound prometaphase block of the Ras Mut cells,preferentially induce the accumulation of Ras Mut HCT116 cells,more resistant to these inhibitors relative to DLD-1 PI3K WT cells,very little difference,,,,,,,
COC(=O)Nc1nc2ccc(C(=O)c3cccs3)cc2[nH]1 [nocodazole],,no synthetic lethality with mutant Ras,no synthetic lethality with mutant Ras,,,,,,,,,,,,
CC(=O)O[C@H]1C(=O)[C@@]2(C)[C@H]([C@H](OC(=O)c3ccccc3)[C@]3(O)C[C@H](OC(=O)[C@H](O)[C@@H](NC(=O)c4ccccc4)c4ccccc4)C(C)=C1C3(C)C)[C@]1(OC(C)=O)CO[C@@H]1C[C@@H]2O [paclitaxel],sufficient to selectively impair the viability of Ras Mut cells,increased sensitivity,increased sensitivity,strong G2/M arrest in Ras Mut cells but not in Ras WT cells,striking pro-metaphase block in the Ras mutant cells,,more resistant to these inhibitors relative to DLD-1 PI3K WT cells,very little difference,,,,,,,
N#CC(=C(/N)Sc1ccccc1N)/C(C#N)=C(\N)Sc1ccccc1N [U0126],,At no concentration of these drugs was selective toxicity towards Ras Mut cells compared to Ras WT cells observed,,,,,,,,,,,,,
CC[C@@H]1C(=O)N(C)c2cnc(Nc3ccc(C(=O)NC4CCN(C)CC4)cc3OC)nc2N1C1CCCC1 [BI-2536],sufficient to selectively impair the viability of Ras Mut cells,,,,strong block of Ras Mut cells in prometaphase,,more resistant to these inhibitors relative to DLD-1 PI3K WT cells,very little difference,approximately 25 nM,Ras Mut cells show a profound G2/M accumulation,elevated sub-G1 population in Ras Mut cells,profound delay in mitotic exit in Ras Mut cells,minimal effect on Ras WT cells,unaffected,enhanced toxicity in DLD-1 Ras Mut cells
